Assay in series [1]: not given
The source holds these as a separate data set.

Series [2] concerns NL-RLuc virus (recombinant HIV NL4-3 with Renilla Luciferase) in MT-2 cells. The experiment in a line: Inhibition of HIV replication (NL-RLuc virus in MT-2 cells, luciferase readout). It is filed as cell-based, human immunodeficiency virus (HIV). To be noted: NL-RLuc virus infecting MT-2 cells, 5 days of incubation, 10% FBS, luciferase quantitation, at least 2 experiments. Summed up: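 NL4-3 carrying Renilla luciferase in place of part of nef, produced in 293T cells, was used to infect MT-2 cells in RPMI 1640/10% FBS with serial compound dilutions. After 5 days, virus growth was read by luciferase. EC50 came from the median effect equation over at least 2 experiments.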

The EC50 is the concentration that produces a half-maximal response.

Where “and” joins values, the source holds several entries; their conditions need not be identical. Equal values may be shown once. Read-outs that look alike come from different tables or passages of the source.

As to `CCOC(=O)[C@@H](OC(C)(C)C)c1c(C)nc2cc3nn2c1N1CCC(C)(CC1)OCC=CCc1ccccc1C(=O)NC3`, where the note is “from C=CCOC1(C)CCN(c2c([C@H](OC(C)(C)C)C(=O)OCC)c(C)nc3cc(CNC(=O)c4ccccc4CC=C)nn23)CC1, rcm bond, 18-membered ring, Hoveyda-Grubbs II (5 mol%), then NaOH, 1,2-dichloroethane, 4.7 mM, 70.0 °C, 2.0 h, 2 steps”, the ring closure, yield after HPLC amounted to 71.1%.
`CCOC(=O)[C@@H](OC(C)(C)C)c1c(C)nc2cc3nn2c1N1CCC(C)(CC1)OCC=CC[C@H](C)Oc1cc(F)c(F)cc1COC3` showed a ring closure, yield after HPLC (from C=CCOC1(C)CCN(c2c([C@H](OC(C)(C)C)C(=O)OCC)c(C)nc3cc(COCc4cc(F)c(F)cc4O[C@@H](C)CC=C)nn23)CC1, rcm bond, 20-membered ring, Hoveyda-Grubbs II/CuI, DCE, 4.25 mM, 90.0 °C, 3.0 h) of 27%.
Under “from C=CCOc1cccc(-c2cn(Cc3cc4nc(C)c([C@H](OC(C)(C)C)C(=O)OCC)c(N5CCC(C)(OCC=C)CC5)n4n3)nn2)c1, rcm bond, 21-membered ring, Hoveyda-Grubbs II (5 mol%), then H2, Pd/C, then NaOH, 1,2-dichloroethane, 1.8 mM, 70.0 °C, 2.0 h, 3 steps”, `CCOC(=O)[C@@H](OC(C)(C)C)c1c(C)nc2cc3nn2c1N1CCC(C)(CC1)OCC=CCOc1cccc(c1)-c1cn(nn1)C3` had a ring closure, yield after HPLC of 37.2%.
For `CCOC(=O)[C@@H](OC(C)(C)C)c1c(C)nc2cc3nn2c1N1CCC(C)(CC1)OCC=CCOC1(CCCCC1)c1cn(nn1)C3`, the ring closure, yield after HPLC (from C=CCOC1(C)CCN(c2c([C@H](OC(C)(C)C)C(=O)OCC)c(C)nc3cc(Cn4cc(C5(OCC=C)CCCCC5)nn4)nn23)CC1, rcm bond, 19-membered ring, Hoveyda-Grubbs II (5 mol%), then NaOH, 1,2-dichloroethane, 4.3 mM, 70.0 °C, 2.0 h, 2 steps) was 30.6% and 24.1%.
In the case of `CCOC(=O)[C@@H](OC(C)(C)C)c1c(C)nc2cc3nn2c1N1CCC(C)(CC1)OCCCC[C@H](C)Oc1cc(F)c(F)cc1CCC3`, the ring closure, yield after HPLC (from CCOC(=O)[C@@H](OC(C)(C)C)c1c(C)nc2cc(CCCc3cc(F)c(F)cc3O)nn2c1N1CCC(C)(OCCCC[C@@H](C)O)CC1, ether bond, 20-membered ring, PPh3/DEAD, THF, 10.5 mM, 3.0 h, 2 steps) was 19.2%.
Turning to `CCOC(=O)[C@@H](OC(C)(C)C)c1c(C)nc2cc3nn2c1N1CCC(C)(CC1)OCC=CCOc1ccccc1CC(=O)NC3`, the ring closure, yield after HPLC (from C=CCOc1ccccc1CC(=O)NCc1cc2nc(C)c([C@H](OC(C)(C)C)C(=O)OCC)c(N3CCC(C)(OCC=C)CC3)n2n1, rcm bond, 20-membered ring, Hoveyda-Grubbs II (5 mol%), then NaOH, 1,2-dichloroethane, 8.6 mM, 70.0 °C, 4.0 h, 2 steps) is 11.6% and 31.6%.
Where the note is “from CCOC(=O)[C@@H](OC(C)(C)C)c1c(C)nc2cc(CCCc3c(O)ccc(F)c3F)nn2c1N1CCC(C)(OCCCC[C@@H](C)O)CC1, ether bond, 20-membered ring, PPh3/DEAD, THF, 5.2 mM, 3.0 h, 2 steps”, `CCOC(=O)[C@@H](OC(C)(C)C)c1c(C)nc2cc3nn2c1N1CCC(C)(CC1)OCCCC[C@H](C)Oc1ccc(F)c(F)c1CCC3` gave a ring closure, yield after HPLC of 23.6%.
Consider `CCOC(=O)[C@@H](OC(C)(C)C)c1c(C)nc2cc3nn2c1N1CCC(C)(CC1)OCC=CCc1cc(C)ccc1COC3`, for which the ring closure, isolated yield in series [1] (from C=CCOC1(C)CCN(c2c([C@H](OC(C)(C)C)C(=O)OCC)c(C)nc3cc(COCc4ccc(C)cc4CC=C)nn23)CC1, rcm bond, 18-membered ring, Grubbs II (1 eq), then NaBH4/MeOH, DCM, 1.62 mM, 40.0 °C, 2.0 h, 2 steps) was determined as 62.6%.
As to `CCOC(=O)[C@@H](OC(C)(C)C)c1c(C)nc2cc3nn2c1N1CCC(C)(CC1)OCC=Cc1cc(C(F)(F)F)ccc1COC3`, the ring closure, isolated yield in series [1] (from C=CCOC1(C)CCN(c2c([C@H](OC(C)(C)C)C(=O)OCC)c(C)nc3cc(COCc4ccc(C(F)(F)F)cc4Br)nn23)CC1, cc_pd bond, 17-membered ring, Pd2(dba)3/PPh3/Et3N, MeCN, 35.1 mM, 120.0 °C, 23.0 h) turned out to be 62.9%.
Take `CCOC(=O)[C@@H](OC(C)(C)C)c1c(C)nc2cc3nn2c1N1CCC(C)(CC1)OCCCC[C@H](C)Oc1c(F)cc(F)cc1CCC3`: where the note is “from CCOC(=O)[C@@H](OC(C)(C)C)c1c(C)nc2cc(CCCc3cc(F)cc(F)c3O)nn2c1N1CCC(C)(OCCCC[C@@H](C)O)CC1, ether bond, 20-membered ring, PPh3/DEAD, THF, 6.4 mM, 3.0 h, 2 steps”, the ring closure, yield after HPLC came to 37.6%.
With `Cc1nc2cc3nn2c(c1[C@H](OC(C)(C)C)C(=O)O)N1CCC(C)(CC1)OCC=CC[C@H](C)Oc1cc(F)cc(F)c1COC3` [Example 31, (2S)-2-(tert-Butoxy)-2-[(20S)-14,16-difluoro-4,20,26-trimethyl-11,19,25-trioxa-1,5,7,8-tetraazapentacyclo[24.2.2.1^6,^9.0^2,^7.0^13,^18]hentriaconta-2,4,6(31),8,13,15,17,22-octaen-3-yl]acetic acid], the EC50 in series [2] (MT2, 120 h) is 12 nM. Also, the ring closure, yield after HPLC (from C=CCOC1(C)CCN(c2c([C@H](OC(C)(C)C)C(=O)O)c(C)nc3cc(COCc4c(F)cc(F)cc4O[C@@H](C)CC=C)nn23)CC1, rcm bond, 20-membered ring, Hoveyda-Grubbs II/CuI, DCE, 11.5 mM, 90.0 °C, 1.5 h) was found to be 5.67%.
Consider `Cc1nc2cc3nn2c(c1[C@H](OC(C)(C)C)C(=O)O)N1CCC(C)(CC1)OCC=CC[C@H](C)Oc1cc(Cl)ccc1COC3` [Example 34, (2S)-2-(tert-Butoxy)-2-[(20S)-16-chloro-4,20,26-trimethyl-11,19,25-trioxa-1,5,7,8-tetraazapentacyclo[24.2.2.1^6,^9.0^2,^7.0^13,^18]hentriaconta-2,4,6(31),8,13,15,17,22-octaen-3-yl]acetic acid], for which, in series [2] (MT2, 120 h), the EC50 was 5 nM. Moreover, the ring closure, yield after HPLC (from C=CCOC1(C)CCN(c2c([C@H](OC(C)(C)C)C(=O)O)c(C)nc3cc(COCc4ccc(Cl)cc4O[C@@H](C)CC=C)nn23)CC1, rcm bond, 20-membered ring, Hoveyda-Grubbs II/CuI, DCE, 31.5 mM, 90.0 °C, 1.5 h) is 7.32%.
Consider `Cc1nc2cc3nn2c(c1[C@H](OC(C)(C)C)C(=O)O)N1CCC(C)(CC1)OC=CCCOC(C)(C)c1cn(nn1)C3` [Example 3, (2S)-2-(tert-Butoxy)-2-[4,15,15,22-tetramethyl-16,21-dioxa-1,5,7,8,11,12,13-heptaazapentacyclo[20.2.2.1^6,^9.1^11,^14.0^2,^7]octacosa-2,4,6(28),8,12,14(27),19-heptaen-3-yl]acetic acid], for which the EC50 in series [2] (read-out: EC50) is 253 nM.
With `Cc1nc2cc3nn2c(c1[C@H](OC(C)(C)C)C(=O)O)N1CCC(C)(CC1)OCC=CC[C@H](C)Oc1ccc(F)cc1COC3` [Example 27, (2S)-2-(tert-Butoxy)-2-[(20S)-15-fluoro-4,20,26-trimethyl-11,19,25-trioxa-1,5,7,8-tetraazapentacyclo[24.2.2.1^6,^9.0^2,^7.0^13,^18]hentriaconta-2,4,6(31),8,13,15,17,22-octaen-3-yl]acetic acid], the EC50 in series [2] (MT2, 120 h) was determined as 37 nM. The compound also registered a ring closure, yield after HPLC (from C=CCOC1(C)CCN(c2c([C@H](OC(C)(C)C)C(=O)O)c(C)nc3cc(COCc4cc(F)ccc4O[C@@H](C)CC=C)nn23)CC1, rcm bond, 20-membered ring, Hoveyda-Grubbs II/CuI, DCE, 0.41 mM, 90.0 °C, 3.0 h) of 50.2%.
Consider `Cc1nc2cc3nn2c(c1[C@H](OC(C)(C)C)C(=O)O)N1CCC(C)(CC1)OCCCCc1cc(F)c(F)cc1COC3` [Example 68, (2S)-2-(tert-Butoxy)-2-{15,16-difluoro-4,24-dimethyl-11,23-dioxa-1,5,7,8-tetraazapentacyclo[22.2.2.1^6,^9.0^2,^7.0^13,^18]nonacosa-2,4,6(29),8,13(18),14,16-heptaen-3-yl}acetic acid], for which the EC50 in series [2] (MT2, 120 h) came out at 1 nM.
The same measure, in the same setting: with `Cc1nc2cc3nn2c(c1[C@H](OC(C)(C)C)C(=O)O)N1CCC(C)(CC1)OCC=CCOCc1cn(nn1)C3` [Example 1, (2S)-2-(tert-Butoxy)-2-[4,22-dimethyl-16,21-dioxa-1,5,7,8,11,12,13-heptaazapentacyclo[20.2.2.1^6,^9.1^11,^14.0^2,^7]octacosa-2,4,6(28),8,12,14(27),18-heptaen-3-yl]acetic acid] the figure was 2490 nM.
Consider `Cc1ccc2c(c1)COCc1cc3nc(C)c([C@H](OC(C)(C)C)C(=O)O)c(n3n1)N1CCC(C)(CC1)OCC=CC[C@H](C)O2` [Example 29, (2S)-2-(tert-Butoxy)-2-[(20S)-4,15,20,26-tetramethyl-11,19,25-trioxa-1,5,7,8-tetraazapentacyclo[24.2.2.1^6,^9.0^2,^7.0^13,^18]hentriaconta-2,4,6(31),8,13,15,17,22-octaen-3-yl]acetic acid], for which the EC50 in series [2] (MT2, 120 h) was 6 nM. For the setting “from C=CCOC1(C)CCN(c2c([C@H](OC(C)(C)C)C(=O)O)c(C)nc3cc(COCc4cc(C)ccc4O[C@@H](C)CC=C)nn23)CC1, rcm bond, 20-membered ring, Hoveyda-Grubbs II/CuI, DCE, 13.0 mM, 90.0 °C, 3.0 h”, this compound registered a ring closure, yield after HPLC of 5.64%.
Where the note is “from C=CCOC1(C)CCN(c2c([C@H](OC(C)(C)C)C(=O)OCC)c(C)nc3cc(CNC(=O)C(=O)N(CC=C)Cc4ccc(F)c(C)c4)nn23)CC1, rcm bond, 18-membered ring, Hoveyda-Grubbs II (5 mol%), then NaOH, 1,2-dichloroethane, 4.03 mM, 70.0 °C, 2.0 h, 2 steps”, `CCOC(=O)[C@@H](OC(C)(C)C)c1c(C)nc2cc3nn2c1N1CCC(C)(CC1)OCC=CCN(Cc1ccc(F)c(C)c1)C(=O)C(=O)NC3` returned a ring closure, yield after HPLC of 63.3%.
For the compound `Cc1nc2cc3nn2c(c1[C@H](OC(C)(C)C)C(=O)O)N1CCC(C)(CC1)OCCCCC(C(F)(F)F)Oc1cc(F)ccc1COC3` (stereo partly drawn) [Example 54, (2S)-2-(tert-butoxy)-2-[16-fluoro-4,26-dimethyl-20-(trifluoromethyl)-11,19,25-trioxa-1,5,7,8-tetraazapentacyclo[24.2.2.1^6,^9.0^2,^7.0^13,^18]hentriaconta-2,4,6(31),8,13,15,17-heptaen-3-yl]acetic acid], the EC50 in series [2] (MT2, 120 h) was 7 nM.
Same read-out and setting: with `Cc1nc2cc3nn2c(c1[C@H](OC(C)(C)C)C(=O)O)N1CCC(C)(CC1)OCCCC[C@@H](COCc1ccccc1)OC3` [Example 48, (2S)-2-[(12S)-12-[(benzyloxy)methyl]-4,18-dimethyl-11,17-dioxa-1,5,7,8-tetraazatetracyclo[16.2.2.1^6,^9.0^2,^7]tricosa-2,4,6(23),8-tetraen-3-yl]-2-(tert-butoxy)acetic acid] the figure was 111 nM.

Source of the values: patent publication US9273067B2, “Pyrazolopyrimidine macrocycles as inhibitors of human immunodeficiency virus replication” (BRISTOL-MYERS SQUIBB COMPANY, priority 2014, dated 2016).
